{"source": "patent US8394414B2", "about": "“Method for drug delivery to the pulmonary system” (MannKind Corporation, priority 1995, dated 2013)", "test": "in vivo", "details": "sheep, sc", "protocol": "Sheep (approximately 100 kg) were housed at SUNY Stony Brook Health Sciences Center. Animals were anesthetized with acepromazine/thiopental sodium. A suspense of diketopiperazine microparticle/sCT (10.04 mg/mL in 0.9% saline) was instilled in each lung of each sheep. A solution of sCT (10 mg/mL in 0.9% saline) was administered by subcutaneous injection to control animals. An intravenous catheter was placed in the cephalic vein of each anesthetized animal for blood sampling.\nThe following dosing solutions were prepared on the day of the experiment. The volume of the dose delivered was calculated based on the actual weight of the animal as described below.\nBlood samples were drawn at the following time points: −5, 0 (predose), 1, 3, 5, 10, 15, 30, 45, 60, 90 minutes, 2, 4, and 6 hours. […]\nPlasma sCT concentration was determined using radioimmunoassay (Research and Diagnostic Antibodies, Berkeley, Calif., catalog #K-1235).\nThe pharmacokinetics of sCT in sheep was determined after lung instillation of a formulation of sCT in diketopiperazine microparticle (2.47% by weight sCT) at a sCT dose of 100 μg/kg. […]\nThe truncated AUC (0 to 6 hours) was calculated for each animal using the trapezoidal rule. The bioavailability (F %) for each animal was calculated from the ration of the AUCs for the pulmonary and subcutaneous administrations."}
{"smiles": "CC(C)C[C@H](NC(=O)[C@H](CCCCN)NC(=O)CNC(=O)[C@H](CC(C)C)NC(=O)[C@@H](NC(=O)[C@@H]1CSSC[C@H](N)C(=O)N[C@@H](CO)C(=O)N[C@@H](CC(N)=O)C(=O)N[C@@H](CC(C)C)C(=O)N[C@@H](CO)C(=O)N[C@@H]([C@@H](C)O)C(=O)N1)C(C)C)C(=O)N[C@@H](CO)C(=O)N[C@@H](CCC(N)=O)C(=O)N[C@@H](CCC(=O)O)C(=O)N[C@@H](CC(C)C)C(=O)N[C@@H](Cc1c[nH]cn1)C(=O)N[C@@H](CCCCN)C(=O)N[C@@H](CC(C)C)C(=O)N[C@@H](CCC(N)=O)C(=O)N[C@H](C(=O)N[C@@H](Cc1ccc(O)cc1)C(=O)N1CCC[C@H]1C(=O)N[C@@H](CCCNC(=N)N)C(=O)N[C@H](C(=O)N[C@@H](CC(N)=O)C(=O)N[C@H](C(=O)NCC(=O)N[C@@H](CO)C(=O)NCC(=O)N[C@H](C(=O)N1CCC[C@H]1C(N)=O)[C@@H](C)O)[C@@H](C)O)[C@@H](C)O)[C@@H](C)O", "note": "[sCT, salmon calcitonin]", "values": [{"measurement": "Tmax", "result": 2, "unit": "h"}, {"measurement": "AUC(0-t)", "setting": "100 ug/kg", "result": 38.8, "unit": "ng·h/mL"}]}
